Tests used:
[1] = target: T1, Serine/threonine-protein kinase ULK1 (Homo sapiens) (UniProt O75385); experiment: Selectivity interaction (ActivX KiNativ screen (kinase selectivity in THP-1 cell lysates)) EUB0000639a ULK1; assay type: subcellular; conditions: lysate, at 0.04 µM
T1 sequence (whole entry): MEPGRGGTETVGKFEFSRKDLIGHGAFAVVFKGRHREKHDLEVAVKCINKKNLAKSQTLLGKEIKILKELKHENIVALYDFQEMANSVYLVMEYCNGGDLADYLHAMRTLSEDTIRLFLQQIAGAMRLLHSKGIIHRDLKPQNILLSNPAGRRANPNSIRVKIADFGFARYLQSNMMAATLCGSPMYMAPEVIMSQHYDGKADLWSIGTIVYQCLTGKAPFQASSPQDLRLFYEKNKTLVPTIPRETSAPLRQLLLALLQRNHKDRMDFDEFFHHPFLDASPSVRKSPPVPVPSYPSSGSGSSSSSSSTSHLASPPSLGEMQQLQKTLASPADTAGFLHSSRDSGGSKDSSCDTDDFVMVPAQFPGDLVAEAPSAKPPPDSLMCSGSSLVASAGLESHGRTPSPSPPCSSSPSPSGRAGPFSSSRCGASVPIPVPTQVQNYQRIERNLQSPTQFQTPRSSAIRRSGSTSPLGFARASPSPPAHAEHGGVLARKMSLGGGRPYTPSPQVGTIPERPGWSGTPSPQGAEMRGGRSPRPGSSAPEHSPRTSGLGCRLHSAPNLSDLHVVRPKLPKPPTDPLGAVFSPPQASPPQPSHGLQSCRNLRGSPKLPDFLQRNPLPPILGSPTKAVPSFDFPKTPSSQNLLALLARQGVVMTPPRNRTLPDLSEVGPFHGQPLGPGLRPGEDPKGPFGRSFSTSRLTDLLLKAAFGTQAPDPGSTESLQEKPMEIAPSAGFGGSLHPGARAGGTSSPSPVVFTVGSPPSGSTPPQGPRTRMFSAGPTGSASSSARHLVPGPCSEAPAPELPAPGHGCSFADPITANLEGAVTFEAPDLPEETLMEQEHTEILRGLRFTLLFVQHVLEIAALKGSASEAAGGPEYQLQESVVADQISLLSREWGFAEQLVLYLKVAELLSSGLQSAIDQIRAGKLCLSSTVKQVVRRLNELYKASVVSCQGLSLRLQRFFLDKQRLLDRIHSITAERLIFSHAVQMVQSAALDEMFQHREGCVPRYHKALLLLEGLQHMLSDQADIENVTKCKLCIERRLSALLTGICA

[2] = target: Ribosomal protein S6 kinase alpha-5 (Homo sapiens) (UniProt O75582); experiment: Selectivity interaction (KinomeScan (DiscoverX)) EUB0001619a RPS6KA5; conditions: at 1 µM
[3] = target: T2, Serine/threonine-protein kinase 36 (Homo sapiens) (UniProt Q9NRP7); experiment: Selectivity interaction (KinomeScan (DiscoverX)) EUB0001619a STK36; conditions: at 1 µM
T2 sequence (whole entry): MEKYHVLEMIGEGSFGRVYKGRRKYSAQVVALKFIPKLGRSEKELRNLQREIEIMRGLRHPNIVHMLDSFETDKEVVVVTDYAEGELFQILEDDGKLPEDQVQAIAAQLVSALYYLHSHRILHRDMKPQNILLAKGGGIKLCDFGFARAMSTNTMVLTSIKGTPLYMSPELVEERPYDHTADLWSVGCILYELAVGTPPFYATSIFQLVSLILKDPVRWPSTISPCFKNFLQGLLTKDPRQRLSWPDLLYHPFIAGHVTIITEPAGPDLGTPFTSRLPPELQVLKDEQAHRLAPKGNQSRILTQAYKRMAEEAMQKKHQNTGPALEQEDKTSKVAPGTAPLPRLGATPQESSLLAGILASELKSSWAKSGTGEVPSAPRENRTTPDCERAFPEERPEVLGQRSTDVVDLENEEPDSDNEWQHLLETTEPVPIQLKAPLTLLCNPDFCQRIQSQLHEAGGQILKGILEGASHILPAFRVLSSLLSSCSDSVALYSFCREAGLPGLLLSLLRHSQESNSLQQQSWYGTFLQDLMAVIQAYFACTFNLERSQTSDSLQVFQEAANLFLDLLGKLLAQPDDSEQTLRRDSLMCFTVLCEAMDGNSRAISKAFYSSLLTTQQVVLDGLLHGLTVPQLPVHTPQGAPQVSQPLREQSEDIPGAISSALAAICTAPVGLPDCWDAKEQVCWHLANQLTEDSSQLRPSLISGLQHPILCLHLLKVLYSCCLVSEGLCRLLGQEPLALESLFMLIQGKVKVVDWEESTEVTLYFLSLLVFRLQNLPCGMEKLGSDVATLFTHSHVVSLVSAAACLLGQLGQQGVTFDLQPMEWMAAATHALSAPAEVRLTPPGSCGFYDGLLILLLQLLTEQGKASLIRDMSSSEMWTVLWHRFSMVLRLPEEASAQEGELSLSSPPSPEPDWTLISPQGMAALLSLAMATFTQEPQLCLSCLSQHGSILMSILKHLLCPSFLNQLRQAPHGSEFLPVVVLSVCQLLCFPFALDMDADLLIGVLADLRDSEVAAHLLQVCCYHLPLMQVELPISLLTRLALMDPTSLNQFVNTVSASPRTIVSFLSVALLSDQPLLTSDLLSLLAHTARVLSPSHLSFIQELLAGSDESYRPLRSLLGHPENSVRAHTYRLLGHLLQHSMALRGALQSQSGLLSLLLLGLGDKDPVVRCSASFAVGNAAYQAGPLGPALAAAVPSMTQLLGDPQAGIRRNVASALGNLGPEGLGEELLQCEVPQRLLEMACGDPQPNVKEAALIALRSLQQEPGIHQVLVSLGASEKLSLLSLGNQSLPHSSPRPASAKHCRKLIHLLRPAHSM

Chain of Ribosomal protein S6 kinase alpha-5 (Homo sapiens) (O75582 whole entry, looked up): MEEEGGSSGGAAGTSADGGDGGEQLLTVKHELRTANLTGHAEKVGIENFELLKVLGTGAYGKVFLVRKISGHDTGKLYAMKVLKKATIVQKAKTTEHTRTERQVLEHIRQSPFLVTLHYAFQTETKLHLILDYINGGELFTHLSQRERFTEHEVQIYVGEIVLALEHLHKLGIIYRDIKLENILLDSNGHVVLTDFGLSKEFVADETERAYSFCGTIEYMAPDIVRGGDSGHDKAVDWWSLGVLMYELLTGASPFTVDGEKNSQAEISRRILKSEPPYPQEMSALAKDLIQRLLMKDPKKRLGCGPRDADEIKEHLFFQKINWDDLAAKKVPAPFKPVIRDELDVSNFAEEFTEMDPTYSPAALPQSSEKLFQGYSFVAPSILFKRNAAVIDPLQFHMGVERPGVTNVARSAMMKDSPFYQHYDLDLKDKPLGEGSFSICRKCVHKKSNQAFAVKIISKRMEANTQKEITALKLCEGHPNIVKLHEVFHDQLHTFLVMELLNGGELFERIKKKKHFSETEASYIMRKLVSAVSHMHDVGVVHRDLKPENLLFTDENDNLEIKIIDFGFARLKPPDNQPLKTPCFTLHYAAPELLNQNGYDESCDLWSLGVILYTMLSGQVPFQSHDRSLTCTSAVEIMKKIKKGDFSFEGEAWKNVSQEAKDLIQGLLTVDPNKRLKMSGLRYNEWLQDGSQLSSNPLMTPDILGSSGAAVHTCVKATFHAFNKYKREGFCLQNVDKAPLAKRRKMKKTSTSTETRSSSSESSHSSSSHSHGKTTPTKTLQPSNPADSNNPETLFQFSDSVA

| SMILES | % of inhibition [1] [%] | % of control [2] [%] | % of control [3] [%] |
| --- | --- | --- | --- |
| CC[C@@H]1[C@H](F)C(=O)N[C@@H]1COc1nccc2cc(C(N)=O)c(OC)cc12 [ZIMLOVISERTIB] | -12.7 | – | – |
| N#Cc1cccc(-c2c[nH]c3ncnc(N4CCOCC4)c23)c1 | – | 74 | 100 |

Source: ChEMBL document CHEMBL5465560, “Selectivity Literature for EUbOPEN Chemogenomic Library” (2024)
